# Assay results as given in patent publication US10131652B2, “Pyrimidinyloxy benzene derivatives as herbicides” (E. I. DU PONT DE NEMOURS AND COMPANY, priority 2014, dated 2018).
# Like-named read-outs stand apart in the source and are kept apart here.
# Columns and labels:
# Experiment in all cases: Test E pre-/postemergence plant response
# Type in all cases: in vivo
# [1] = system: bluegrass (annual bluegrass, Poa annua); details: scale 0 to 100, read-out: Plant response rating, Bluegrass; for pest or weed control at 16 g/ha: 16 g ai/ha; for pest or weed control at 31 g/ha: 31 g ai/ha; for pest or weed control at 62 g/ha: 62 g ai/ha; for pest or weed control at 125 g/ha: 125 g ai/ha
# In short: (§1)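 Pre-emergence: seeds sown in silt loam soil and sprayed with test chemicals in a non-phytotoxic solvent/surfactant mix. Post-emergence: plants at 2–18 cm (1- to 4-leaf stage) in peat/vermiculite medium treated with the same formulation. Visual rating versus controls after 7–21 days, 0 (no effect) to 100 (complete control).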
# [2] = system: wild radish (Raphanus raphanistrum); details: scale 0 to 100, read-out: Plant response rating, Radish, Wild; for pest or weed control at 16 g/ha: 16 g ai/ha; for pest or weed control at 31 g/ha: 31 g ai/ha; for pest or weed control at 62 g/ha: 62 g ai/ha; for pest or weed control at 125 g/ha: 125 g ai/ha
# In short: as §1
# [3] = system: winter wheat (Triticum aestivum); details: scale 0 to 100, read-out: Plant response rating, Wheat, Winter; for plant injury at 16 g/ha: 16 g ai/ha; for plant injury at 62 g/ha: 62 g ai/ha; for plant injury at 125 g/ha: 125 g ai/ha
# In short: as §1
# kochia (Kochia scoparia) = details: Bassia scoparia, scale 0 to 100, read-out: Plant response rating, Kochia; for pest or weed control at 16 g/ha: 16 g ai/ha; for pest or weed control at 31 g/ha: 31 g ai/ha; for pest or weed control at 62 g/ha: 62 g ai/ha; for pest or weed control at 125 g/ha: 125 g ai/ha
# In short: as §1
# [4] = system: blackgrass (Alopecurus myosuroides); details: scale 0 to 100, read-out: Plant response rating, Blackgrass; for pest or weed control at 16 g/ha: 16 g ai/ha; for pest or weed control at 31 g/ha: 31 g ai/ha; for pest or weed control at 62 g/ha: 62 g ai/ha; for pest or weed control at 125 g/ha: 125 g ai/ha
# In short: as §1
# [5] = system: speedwell (bird's-eye speedwell, Veronica persica); details: scale 0 to 100, read-out: Plant response rating, Speedwell; for pest or weed control at 16 g/ha: 16 g ai/ha; for pest or weed control at 62 g/ha: 62 g ai/ha; for pest or weed control at 125 g/ha: 125 g ai/ha
# In short: as §1
# [6] = system: wild mustard (Sinapis arvensis); details: Brassica, scale 0 to 100, read-out: Plant response rating, Mustard, Wild; for pest or weed control at 16 g/ha: 16 g ai/ha; for pest or weed control at 31 g/ha: 31 g ai/ha; for pest or weed control at 62 g/ha: 62 g ai/ha; for pest or weed control at 125 g/ha: 125 g ai/ha
# In short: as §1
# [7] = system: spring barley (Hordeum vulgare); details: for plant injury at 16 g/ha: 16 g ai/ha; for plant injury at 31 g/ha: 31 g ai/ha; for plant injury at 62 g/ha: 62 g ai/ha; for plant injury at 125 g/ha: 125 g ai/ha
# In short: as §1
# [8] = system: Italian ryegrass (Lolium multiflorum); details: scale 0 to 100, read-out: Plant response rating, Ryegrass, Italian; for pest or weed control at 16 g/ha: 16 g ai/ha; for pest or weed control at 31 g/ha: 31 g ai/ha; for pest or weed control at 62 g/ha: 62 g ai/ha; for pest or weed control at 125 g/ha: 125 g ai/ha
# In short: as §1
# [9] = system: lambsquarters (Chenopodium album); details: scale 0 to 100, read-out: Plant response rating, Lambsquarters; for pest or weed control at 16 g/ha: 16 g ai/ha; for pest or weed control at 31 g/ha: 31 g ai/ha; for pest or weed control at 62 g/ha: 62 g ai/ha; for pest or weed control at 125 g/ha: 125 g ai/ha
# In short: as §1
# [10] = system: pigweed (Amaranthus retroflexus); details: scale 0 to 100, read-out: Plant response rating, Pigweed; for pest or weed control at 16 g/ha: 16 g ai/ha; for pest or weed control at 31 g/ha: 31 g ai/ha; for pest or weed control at 62 g/ha: 62 g ai/ha; for pest or weed control at 125 g/ha: 125 g ai/ha
# In short: as §1
# [11] = post-emergence, 31 g ai/ha, Postemergence
# [12] = post-emergence, Postemergence, scale 0 to 100, read-out: Plant response rating, Barley, Spring
# [13] = pre-emergence, Preemergence, scale 0 to 100, read-out: Plant response rating, Barley, Spring
compound,measurement,setting,value
"FC(F)c1cc(-c2ccccc2Oc2ncc(Cl)cn2)on1 [Compound 53, 5-chloro-2-[2-[3-(difluoromethyl)-5-isoxazolyl]phenoxy]pyrimidine]",pest or weed control at 16 g/ha,"[1]; post-emergence, Postemergence",0%
same,pest or weed control at 31 g/ha,"[1]; post-emergence, Postemergence",0%
same,pest or weed control at 62 g/ha,"[1]; post-emergence, Postemergence",5%
same,pest or weed control at 125 g/ha,"[1]; post-emergence, Postemergence",5%
same,pest or weed control at 16 g/ha,"[1]; pre-emergence, Preemergence",10%
same,pest or weed control at 31 g/ha,"[1]; pre-emergence, Preemergence",10%
same,pest or weed control at 62 g/ha,"[1]; pre-emergence, Preemergence",20%
same,pest or weed control at 125 g/ha,"[1]; pre-emergence, Preemergence",25%
same,pest or weed control at 16 g/ha,"[2]; post-emergence, Postemergence",60%
same,pest or weed control at 31 g/ha,"[2]; post-emergence, Postemergence",60%
same,pest or weed control at 62 g/ha,"[2]; post-emergence, Postemergence",90%
same,pest or weed control at 125 g/ha,"[2]; post-emergence, Postemergence",90%
same,pest or weed control at 16 g/ha,"[2]; pre-emergence, Preemergence",50%
same,pest or weed control at 31 g/ha,"[2]; pre-emergence, Preemergence",70%
same,pest or weed control at 62 g/ha,"[2]; pre-emergence, Preemergence",100%
same,pest or weed control at 125 g/ha,"[2]; pre-emergence, Preemergence",90%
same,plant injury at 16 g/ha,"[3]; post-emergence, Postemergence",5%
same,plant injury at 31 g/ha,[3]; [11],5%
same,plant injury at 62 g/ha,"[3]; post-emergence, Postemergence",15%
same,plant injury at 125 g/ha,"[3]; post-emergence, Postemergence",35%
same,plant injury at 16 g/ha,"[3]; pre-emergence, Preemergence",15%
same,plant injury at 62 g/ha,"[3]; pre-emergence, Preemergence",25%
same,plant injury at 125 g/ha,"[3]; pre-emergence, Preemergence",30%
same,pest or weed control at 16 g/ha,"kochia (Kochia scoparia); post-emergence, Postemergence",50%
same,pest or weed control at 31 g/ha,"kochia (Kochia scoparia); post-emergence, Postemergence",55%
same,pest or weed control at 62 g/ha,"kochia (Kochia scoparia); post-emergence, Postemergence",70%
same,pest or weed control at 125 g/ha,"kochia (Kochia scoparia); post-emergence, Postemergence",80%
same,pest or weed control at 16 g/ha,"kochia (Kochia scoparia); pre-emergence, Preemergence",10%
same,pest or weed control at 31 g/ha,"kochia (Kochia scoparia); pre-emergence, Preemergence",15%
same,pest or weed control at 62 g/ha,"kochia (Kochia scoparia); pre-emergence, Preemergence",55%
same,pest or weed control at 125 g/ha,"kochia (Kochia scoparia); pre-emergence, Preemergence",100%
same,pest or weed control at 16 g/ha,"[4]; post-emergence, Postemergence",0%
same,pest or weed control at 31 g/ha,"[4]; post-emergence, Postemergence",5%
same,pest or weed control at 62 g/ha,"[4]; post-emergence, Postemergence",10%
same,pest or weed control at 125 g/ha,"[4]; post-emergence, Postemergence",25%
same,pest or weed control at 16 g/ha,"[4]; pre-emergence, Preemergence",10%
same,pest or weed control at 31 g/ha,"[4]; pre-emergence, Preemergence",10%
same,pest or weed control at 62 g/ha,"[4]; pre-emergence, Preemergence",25%
same,pest or weed control at 125 g/ha,"[4]; pre-emergence, Preemergence",30%
same,pest or weed control at 16 g/ha,"[5]; post-emergence, Postemergence",60%
same,pest or weed control at 31 g/ha,[5]; [11],60%
same,pest or weed control at 62 g/ha,"[5]; post-emergence, Postemergence",95%
same,pest or weed control at 125 g/ha,"[5]; post-emergence, Postemergence",100%
same,pest or weed control at 16 g/ha,"[5]; pre-emergence, Preemergence",100%
same,pest or weed control at 62 g/ha,"[5]; pre-emergence, Preemergence",100%
same,pest or weed control at 125 g/ha,"[5]; pre-emergence, Preemergence",100%
same,pest or weed control at 16 g/ha,"[6]; post-emergence, Postemergence",65%
same,pest or weed control at 31 g/ha,"[6]; post-emergence, Postemergence",75%
same,pest or weed control at 62 g/ha,"[6]; post-emergence, Postemergence",95%
same,pest or weed control at 125 g/ha,"[6]; post-emergence, Postemergence",95%
same,pest or weed control at 16 g/ha,"[6]; pre-emergence, Preemergence",90%
same,pest or weed control at 31 g/ha,"[6]; pre-emergence, Preemergence",100%
same,pest or weed control at 62 g/ha,"[6]; pre-emergence, Preemergence",100%
same,pest or weed control at 125 g/ha,"[6]; pre-emergence, Preemergence",100%
same,plant injury at 16 g/ha,[7]; [12],5%
same,plant injury at 31 g/ha,[7]; [12],5%
same,plant injury at 62 g/ha,[7]; [12],10%
same,plant injury at 125 g/ha,"[7]; post-emergence, Postemergence, scale 0 to 100 (0 no effect, 100 complete control), read-out: Plant response rating, Barley, Spring",10%
same,plant injury at 16 g/ha,[7]; [13],35%
same,plant injury at 31 g/ha,[7]; [13],35%
same,plant injury at 62 g/ha,[7]; [13],35%
same,plant injury at 125 g/ha,[7]; [13],35%
same,pest or weed control at 16 g/ha,"[8]; post-emergence, Postemergence",0%
same,pest or weed control at 31 g/ha,"[8]; post-emergence, Postemergence",0%
same,pest or weed control at 62 g/ha,"[8]; post-emergence, Postemergence",5%
same,pest or weed control at 125 g/ha,"[8]; post-emergence, Postemergence",5%
same,pest or weed control at 16 g/ha,"[8]; pre-emergence, Preemergence",10%
same,pest or weed control at 31 g/ha,"[8]; pre-emergence, Preemergence",10%
same,pest or weed control at 62 g/ha,"[8]; pre-emergence, Preemergence",25%
same,pest or weed control at 125 g/ha,"[8]; pre-emergence, Preemergence",25%
same,pest or weed control at 16 g/ha,"[9]; post-emergence, Postemergence",65%
same,pest or weed control at 31 g/ha,"[9]; post-emergence, Postemergence",70%
same,pest or weed control at 62 g/ha,"[9]; post-emergence, Postemergence",65%
same,pest or weed control at 125 g/ha,"[9]; post-emergence, Postemergence",75%
same,pest or weed control at 16 g/ha,"[9]; pre-emergence, Preemergence",60%
same,pest or weed control at 31 g/ha,"[9]; pre-emergence, Preemergence",75%
same,pest or weed control at 62 g/ha,"[9]; pre-emergence, Preemergence",100%
same,pest or weed control at 125 g/ha,"[9]; pre-emergence, Preemergence",100%
same,pest or weed control at 16 g/ha,"[10]; post-emergence, Postemergence",85%
same,pest or weed control at 31 g/ha,"[10]; post-emergence, Postemergence",85%
same,pest or weed control at 62 g/ha,"[10]; post-emergence, Postemergence",90%
same,pest or weed control at 125 g/ha,"[10]; post-emergence, Postemergence",90%
same,pest or weed control at 16 g/ha,"[10]; pre-emergence, Preemergence",30%
same,pest or weed control at 31 g/ha,"[10]; pre-emergence, Preemergence",20%
same,pest or weed control at 62 g/ha,"[10]; pre-emergence, Preemergence",100%
same,pest or weed control at 125 g/ha,"[10]; pre-emergence, Preemergence",100%
